We go through one molecule from US11492386B2, “Parathyroid hormone-anti-RANKL antibody fusion compounds” (Eli Lilly and Company, priority 2016, dated 2022).

This assay has as its system orchidectomized murine model. Briefly: In vivo efficacy (BMD and BMC by qCT) in orchidectomized murine model. Set-up: species or system mice. The conditions noted are these: 5 μg/kg daily sc, two weeks. The method, then: Effects on bone mass density and bone mineral content, in vivo, are assessed using an orchidectomized murine model. Sixteen week old […] C57/B6 mice (Harlan, Indianapolis, Ind.) are orchidectomized (or vehicle control group, n=6) and maintained on a 12 hour light/dark cycle at 22° C. with ad lib access to food (TD 2014 with 0.72% Ca and 0.61% P, Vit. D 0.99 IU/g, Teklad, Madison, Wis.) and water. Osteopenia is established in the orchidectomized mice by allowing mice to lose bone mass for a six-week period.
Following a six-week osteopenia-establishing period, mice are divided into treatment groups and a vehicle PBS control group. […]
Bone mass density (BMD) of distal femur and bone mineral content (BMC) of lumbar vertebra are assessed by quantitative computed tomography (qCT) using Aloka LaTheta LTC-100 model CT scanner. […]

Consider `CC[C@H](C)[C@H](NC(=O)[C@H](CCC(=O)O)NC(=O)[C@H](CO)NC(=O)[C@@H](NC(=O)[C@@H](N)CO)C(C)C)C(=O)N[C@@H](CCC(N)=O)C(=O)N[C@@H](CC(C)C)C(=O)N[C@@H](CCSC)C(=O)N[C@@H](Cc1c[nH]cn1)C(=O)N[C@@H](CC(N)=O)C(=O)N[C@@H](CC(C)C)C(=O)NCC(=O)N[C@@H](CCCCN)C(=O)N[C@@H](Cc1c[nH]cn1)C(=O)N[C@@H](CC(C)C)C(=O)N[C@@H](CC(N)=O)C(=O)N[C@@H](CO)C(=O)N[C@@H](CCSC)C(=O)N[C@@H](CCC(=O)O)C(=O)N[C@@H](CCCNC(=N)N)C(=O)N[C@H](C(=O)N[C@@H](CCC(=O)O)C(=O)N[C@@H](Cc1c[nH]c2ccccc12)C(=O)N[C@@H](CC(C)C)C(=O)N[C@@H](CCCNC(=N)N)C(=O)N[C@@H](CCCCN)C(=O)N[C@@H](CCCCN)C(=O)N[C@@H](CC(C)C)C(=O)N[C@@H](CCC(N)=O)C(=O)N[C@@H](CC(=O)O)C(=O)N[C@H](C(=O)N[C@@H](Cc1c[nH]cn1)C(=O)N[C@@H](CC(N)=O)C(=O)N[C@@H](Cc1ccccc1)C(=O)N[C@H](C(=O)N[C@@H](C)C(=O)N[C@@H](CC(C)C)C(=O)NCC(=O)O)C(C)C)C(C)C)C(C)C` [PTH Peptide, reference compound], for which the “Distal-Femur (% BMD change)” value came out at 16% and the “Lumbar Vertebra (% BMC change)” value is 1%.
